From patent publication US20260102501A1, “ANTI-CANCER NUCLEAR HORMONE RECEPTOR-TARGETING COMPOUNDS” (Nuvation Bio Inc., priority 2022, published 2026)
Where a chain is given by its changes, count along the chain named. pIC50: −log10 of the molar value. Where a name gives a salt, the structure may show the parent alone. Read-outs that look alike come from different tables or passages of the source.

How the values were obtained:
LNCap cells = assay: Cell viability assay (CellTiterGlo); format: cell-based; details: Homo sapiens, 144 h; for pIC50: 6 days incubation, CellTiterGlo, read-out: LNCap (IC50); for IC50: read-out: LNCap (IC50, nM)
[1] = target: T1, AR (cytosol from LnCaP cells) (Homo sapiens, UniProt P10275, T878A); assay: AR binding assay (3H-R1881 displacement)
T1 sequence (P10275 1-920 T878A): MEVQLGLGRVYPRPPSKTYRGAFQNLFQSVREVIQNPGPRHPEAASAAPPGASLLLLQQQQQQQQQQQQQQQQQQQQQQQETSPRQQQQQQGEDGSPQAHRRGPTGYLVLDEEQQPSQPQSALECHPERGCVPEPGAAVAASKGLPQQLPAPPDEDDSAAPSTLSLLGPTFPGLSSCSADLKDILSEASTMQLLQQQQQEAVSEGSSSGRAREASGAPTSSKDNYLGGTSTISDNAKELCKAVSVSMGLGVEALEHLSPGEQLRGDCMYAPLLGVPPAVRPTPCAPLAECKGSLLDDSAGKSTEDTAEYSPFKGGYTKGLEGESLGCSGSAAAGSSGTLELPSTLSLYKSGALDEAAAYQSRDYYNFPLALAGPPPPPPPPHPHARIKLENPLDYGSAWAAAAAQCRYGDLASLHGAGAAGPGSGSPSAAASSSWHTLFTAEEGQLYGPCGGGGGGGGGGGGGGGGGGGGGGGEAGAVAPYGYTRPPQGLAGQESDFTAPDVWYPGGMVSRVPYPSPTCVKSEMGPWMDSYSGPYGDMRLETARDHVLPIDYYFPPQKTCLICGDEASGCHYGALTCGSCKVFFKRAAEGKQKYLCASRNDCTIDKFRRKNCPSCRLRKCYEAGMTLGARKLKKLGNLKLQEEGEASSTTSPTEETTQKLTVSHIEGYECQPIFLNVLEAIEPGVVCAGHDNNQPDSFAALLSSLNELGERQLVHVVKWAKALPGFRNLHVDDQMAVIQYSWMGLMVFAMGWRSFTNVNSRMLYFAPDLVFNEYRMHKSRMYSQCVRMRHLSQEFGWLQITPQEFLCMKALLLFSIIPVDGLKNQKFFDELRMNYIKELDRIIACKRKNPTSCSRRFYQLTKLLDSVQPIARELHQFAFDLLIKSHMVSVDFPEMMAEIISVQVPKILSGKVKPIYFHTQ
Description: The plate was then centrifuged at 3000 rpm for 30 minutes at 4° C.

IEC6 cells = assay: Cell viability assay (CellTiterGlo); details: Rattus norvegicus, IEC-6, 144 h, read-out: IEC-6 (IC50, nM)
Description: Cell viability assay: LNCap, 22Rv1, MCF7, MDAMB361, T47D, and IEC6 cells were seeded at a density of 500-2000 cells/well in 96 well plates, and a ‘T0’ (timepoint 0) was included along with the assay plate. The plates were then incubated at 37° C., 5% CO2 in a cell culture incubator overnight. On the next day, the ‘T0’ plate was assayed using CellTiterGlo (Promega, Inc) according to the manufacturer's instructions. The appropriate compounds were diluted in DMSO and added to the assay plate (final DMSO concentration of 0.1-0.2%) on the next day. The assay plates were incubated for 6 days at 37° C., 5% CO2. After the incubation period, the plates were assayed using CellTiterGlo (Promega, Inc) according to the manufacturer's instructions and luminescence was read on the En Vision plate reader. […] GraphPadPrism was used to analyze the data and determine GI50/IC50 values.

[2] = target: T2, full-length androgen receptor (HEK293 cells stably expressing) (Homo sapiens, UniProt P10275); assay: AR antagonism assay (luciferase reporter)
T2 sequence (P10275 1-920): T1 sequence (P10275 1-920 T878A) with A878T

22Rv1 cells = assay: Cell viability assay (CellTiterGlo); details: Homo sapiens, 22Rv1, 144 h, read-out: 22RV1 (IC50, nM)

| Structure (SMILES) | pIC50 (LNCap cells) | pIC50 [1] | IC50 (IEC6 cells) | pIC50 [2] | IC50 (22Rv1 cells) | IC50 (LNCap cells) |
| --- | --- | --- | --- | --- | --- | --- |
| CC[C@@]1(O)C(=O)OCc2c1cc1n(c2=O)Cc2c-1nc1cc(F)c(C)c3c1c2[C@@H](NC(=O)CN1CCN(C(=O)CCCCCC2CCN(c4ccc(C(=O)N[C@H]5CC[C@H](N(C)c6ccc(C#N)c(Cl)c6)CC5)nn4)CC2)CC1)CC3 [Compound No. 46] | 6.00 to 7.00 | 6.00 to 7.00 | > 1000 nM | < 6.00 | 101 to 1000 nM |  |
| CC[C@@]1(O)C(=O)OCc2c1cc1n(c2=O)Cc2c-1nc1cc(F)c(C)c3c1c2[C@@H](NC(=O)CN1CCN(CCCCCCC2CCN(c4ccc(C(=O)N[C@H]5CC[C@H](Oc6ccc(C#N)c(Cl)c6C)CC5)nn4)CC2)CC1)CC3 [Compound No. 48, N-((1r,4r)-4-(3-chloro-4-cyano-2-methylphenoxy)cyclohexyl)-6-(4-(6-(4-(2-(((1S,9S)-9-ethyl-5-fluoro-9-hydroxy-4-methyl-10,13-dioxo-2,3,9,10,13,15-hexahydro-1H,12H-benzo[de]pyrano[3′,4′:6,7]indolizino[1,2-b]quinolin-1-yl)amino)-2-oxoethyl)piperazin-1-yl)hexyl)piperidin-1-yl)pyridazine-3-carboxamide] | 6.00 to 7.00 | 7.00 to 8.00 | > 1000 nM | 6.00 to 7.00 | 101 to 1000 nM |  |
| CC[C@@]1(O)C(=O)OCc2c1cc1n(c2=O)Cc2cc3c(CN(C)C)c(OC(=O)N4C[C@H](C)N(CC5CCN(c6ccc(C(=O)N[C@H]7CC[C@H](N(C)c8ccc(C#N)c(Cl)c8)CC7)nn6)CC5)C[C@H]4C)ccc3nc2-1 [Compound No. 20, (S)-10-((Dimethylamino)methyl)-4-ethyl-4-hydroxy-3,14-dioxo-3,4,12,14-tetrahydro-1H-pyrano[3′,4′:6,7]indolizino[1,2-b]quinolin-9-yl (2R,5S)-4-((1-(6-(((1r,4r)-4-((3-chloro-4-cyanophenyl)-(methyl)amino)cyclohexyl)carbamoyl)pyridazin-3-yl)piperidin-4-yl)methyl)-2,5-dimethylpiperazine-1-carboxylate] |  | 7.00 to 8.00 | > 1000 nM | < 6.00 | 101 to 1000 nM | 101 to 1000 nM |
| CC[C@@]1(O)C(=O)OCc2c1cc1n(c2=O)Cc2cc3c(CN(C)C)c(OC(=O)N4C[C@H](C)N(CCCCCCN(C)C5CCN(c6ccc(C(=O)N[C@H]7CC[C@H](Oc8ccc(C#N)c(Cl)c8C)CC7)nn6)CC5)C[C@H]4C)ccc3nc2-1 [Compound 33, (S)-10-((Dimethylamino)methyl)-4-ethyl-4-hydroxy-3,14-dioxo-3,4,12,14-tetrahydro-1H-pyrano[3′,4′:6,7]indolizino[1,2-b]quinolin-9-yl (2R,5S)-4-(6-((1-(6-(((1r,4r)-4-(3-chloro-4-cyano-2-methylphenoxy)cyclohexyl)carbamoyl)pyridazin-3-yl)piperidin-4-yl)(methyl)amino)hexyl)-2,5-dimethylpiperazine-1-carboxylate Formate] |  | > 8.00 | > 1000 nM | < 6.00 | 101 to 1000 nM | 10 to 100 nM |
| CC[C@@]1(O)C(=O)OCc2c1cc1n(c2=O)Cc2cc3c(CN(C)C)c(OC(=O)N4C[C@H](C)N(CC5CCN(c6ccc(C(=O)N[C@H]7CC[C@H](Oc8ccc(C#N)c(Cl)c8C)CC7)nn6)CC5)C[C@H]4C)ccc3nc2-1 [Compound 32, (S)-10-((Dimethylamino)methyl)-4-ethyl-4-hydroxy-3,14-dioxo-3,4,12,14-tetrahydro-1H-pyrano[3′,4′:6,7]indolizino[1,2-b]quinolin-9-yl (2R,5S)-4-((1-(6-(((1r,4r)-4-(3-Chloro-4-cyano-2-methylphenoxy)cyclohexyl)carbamoyl)pyridazin-3-yl)piperidin-4-yl)methyl)-2,5-dimethylpiperazine-1-carboxylate Formate] |  | 6.00 to 7.00 | > 1000 nM | 6.00 to 7.00 | 101 to 1000 nM | 101 to 1000 nM |
| CC[C@@]1(O)C(=O)OCc2c1cc1n(c2=O)Cc2cc3c(CN4CCN(C(=O)C5CCN(c6ccc(C(=O)N[C@H]7CC[C@H](Oc8ccc(C#N)c(Cl)c8)CC7)nn6)CC5)CC4)c(OC(=O)N(C(C)C)C(C)C)ccc3nc2-1 [Compound 1, (S)-10-((4-(1-(6-(((1r,4r)-4-(3-Chloro-4-cyanophenoxy)cyclohexyl)carbamoyl)pyridazin-3-yl)piperidine-4-carbonyl)piperazin-1-yl)methyl)-4-ethyl-4-hydroxy-3,14-dioxo-3,4,12,14-tetrahydro-1H-pyrano[3′,4′:6,7]indolizino[1,2-b]quinolin-9-yl Diisopropylcarbamate] |  | 6.00 to 7.00 | > 1000 nM | < 6.00 | > 1000 nM | > 1000 nM |
| CC[C@@]1(O)C(=O)OCc2c1cc1n(c2=O)Cc2cc3c(CN4CCN(CCCCCCC5CCN(c6ccc(C(=O)N[C@H]7CC[C@H](Oc8ccc(C#N)c(Cl)c8C)CC7)nn6)CC5)CC4)c(O)ccc3nc2-1 [Compound No. 52] | 7.00 to 8.00 | 7.00 to 8.00 | 101 to 1000 nM | 7.00 to 8.00 | 10 to 100 nM |  |
| CC[C@@]1(O)C(=O)OCc2c1cc1n(c2=O)Cc2cc3c(CN4CCN(CCCCCCC5CCN(c6ccc(C(=O)N[C@H]7CC[C@H](Oc8ccc(C#N)c(Cl)c8C)CC7)nn6)CC5)CC4)cccc3nc2-1 [Compound 44, N-((1r,4r)-4-(3-chloro-4-cyano-2-methylphenoxy)cyclohexyl)-6-(4-(6-(4-(((S)-4-ethyl-4-hydroxy-3,14-dioxo-3,4,12,14-tetrahydro-1H-pyrano[3′,4′:6,7]indolizino[1,2-b]quinolin-10-yl)methyl)piperazin-1-yl)hexyl)piperidin-1-yl)pyridazine-3-carboxamide] | 6.00 to 7.00 | 7.00 to 8.00 | > 1000 nM | < 6.00 | 101 to 1000 nM |  |
| CC[C@@]1(O)C(=O)OCc2c1cc1n(c2=O)Cc2cc3c(CN4CCN(CC5CCN(c6ccc(N7C(=S)N(c8ccc(C#N)c(Cl)c8)C(=O)C7(C)C)cc6)CC5)CC4)c(O)ccc3nc2-1 [Compound No. 53, (S)-2-chloro-4-(3-(4-(4-((4-((4-ethyl-4,9-dihydroxy-3,14-dioxo-3,4,12,14-tetrahydro-1H-pyrano[3′,4′:6,7]indolizino[1,2-b]quinolin-10-yl)methyl)piperazin-1-yl)methyl)piperidin-1-yl)phenyl)-4,4-dimethyl-5-oxo-2-thioxoimidazolidin-1-yl)benzonitrile] | 7.00 to 8.00 | 7.00 to 8.00 | 101 to 1000 nM | 7.00 to 8.00 | 10 to 100 nM |  |
